Measured values reported in ChEMBL document CHEMBL1201862, “PubChem BioAssay data set” (2004).
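All cell lines were grown in 96-well plates and treated with compound for 48 hours. Here, GI50 denotes the concentration required for 50% inhibition of growth.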 The source made the active and inactive calls. Rule as the data show it: active = GI50 up to about 1.1 µM and inactive = higher.

How the values were obtained:
Assay in all cases: growth of human tumour cells (NCI), 48 h
HT-29 = test system: HT-29
SF-539 = test system: SF-539
SNB-19 = test system: SNB-19
SNB-75 = test system: SNB-75
SK-MEL-5 = test system: SK-MEL-5
BT-549 = test system: BT-549
RPMI-8226 = test system: RPMI-8226
CAKI-1 = test system: CAKI-1
HL-60 = test system: HL-60
HCC 2998 = test system: HCC 2998
SF-268 = test system: SF-268
HOP-62 = test system: HOP-62
OVCAR-8 = test system: OVCAR-8
SW-620 = test system: SW-620
A498 = test system: A498
MDA-MB-435 = test system: MDA-MB-435
M19-MEL = test system: M19-MEL
TK-10 = test system: TK-10
LXFL 529 = test system: LXFL 529
HCT-15 = test system: HCT-15
OVCAR-4 = test system: OVCAR-4
T47D = test system: T47D
COLO 205 = test system: COLO 205
KM12 = test system: KM12
MDA-MB-231 = test system: MDA-MB-231
K562 = test system: K562
HCT-116 = test system: HCT-116
SK-MEL-2 = test system: SK-MEL-2
MDA-N = test system: MDA-N
NCI/ADR-RES = test system: NCI/ADR-RES
SNB-78 = test system: SNB-78
HOP-92 = test system: HOP-92
MOLT-4 = test system: MOLT-4
OVCAR-5 = test system: OVCAR-5
SK-MEL-28 = test system: SK-MEL-28
786-0 = test system: 786-0
OVCAR-3 = test system: OVCAR-3
SR = test system: SR
EKVX = test system: EKVX
PC-3 = test system: PC-3
NCI-H23 = test system: NCI-H23
UACC-62 = test system: UACC-62
SN12C = test system: SN12C
HOP-18 = test system: HOP-18
Malme-3M = test system: Malme-3M
ACHN = test system: ACHN
DU-145 = test system: DU-145
SK-OV-3 = test system: SK-OV-3
U-251 = test system: U-251
DMS-114 = test system: DMS-114
M14 = test system: M14
NCI-H522 = test system: NCI-H522
SF-295 = test system: SF-295
UO-31 = test system: UO-31
CCRF-CEM = test system: CCRF-CEM
RXF 393 = test system: RXF 393
NCI-H226 = test system: NCI-H226
A549 = test system: A549
NCI-H460 = test system: NCI-H460
LOX IMVI = test system: LOX IMVI
IGROV-1 = test system: IGROV-1
DLD-1 = test system: DLD-1
UACC-257 = test system: UACC-257
Hs-578T = test system: Hs-578T
MCF7 = test system: MCF7
DMS-273 = test system: DMS-273
KM-20L2 = test system: KM-20L2

Cc1ccc(S(=O)(=O)C2=c3ncccc3=C3C(=O)c4ccccc4C(=O)C32)cc1 (stereo not drawn)
GI50 (HT-29): > 100 µM (inactive)
GI50 (SF-539): 2.75 µM (inactive)
GI50 (SNB-19): 48.9 µM (inactive)
GI50 (SNB-75): 52.6 µM (inactive)
GI50 (SK-MEL-5): 2.79 µM (inactive)
GI50 (BT-549): 39.8 µM (inactive)
GI50 (RPMI-8226): > 100 µM (inactive)
GI50 (CAKI-1): 64.6 µM (inactive)
GI50 (HL-60): 99.5 µM (inactive)
GI50 (HCC 2998): > 10 µM (inactive)
GI50 (SF-268): 46.7 µM (inactive)
GI50 (HOP-62): 4.71 µM (inactive)
GI50 (OVCAR-8): 39.4 µM (inactive)
GI50 (SW-620): > 100 µM (inactive)
GI50 (A498): 5.81 µM (inactive)
GI50 (MDA-MB-435): > 100 µM (inactive)
GI50 (M19-MEL): < 0.01 µM (active)
GI50 (TK-10): 8.65 µM (inactive)
GI50 (LXFL 529): 83.8 µM (inactive)
GI50 (HCT-15): > 10 µM
GI50 (OVCAR-4): 15.8 µM (inactive)
GI50 (T47D): 68.4 µM (inactive)
GI50 (COLO 205): > 100 µM (inactive)
GI50 (KM12): > 9.95 µM (inactive)
GI50 (MDA-MB-231): 29.6 µM (inactive)
GI50 (K562): > 95.9 µM (inactive)
GI50 (HCT-116): 71.6 µM (inactive)
GI50 (SK-MEL-2): 3.13 µM (inactive)
GI50 (MDA-N): > 100 µM (inactive)
GI50 (NCI/ADR-RES): 49.3 µM (inactive)
GI50 (SNB-78): > 100 µM (inactive)
GI50 (HOP-92): 25.4 µM (inactive)
GI50 (MOLT-4): > 100 µM (inactive)
GI50 (OVCAR-5): > 10 µM (inactive)
GI50 (SK-MEL-28): > 100 µM (inactive)
GI50 (786-0): 28.4 µM (inactive)
GI50 (OVCAR-3): 55.8 µM (inactive)
GI50 (SR): > 100 µM (inactive)
GI50 (EKVX): 69 µM (inactive)
GI50 (PC-3): 61.4 µM (inactive)
GI50 (NCI-H23): 64 µM (inactive)
GI50 (UACC-62): 23 µM (inactive)
GI50 (SN12C): > 100 µM (inactive)
GI50 (HOP-18): > 100 µM (inactive)
GI50 (Malme-3M): 53.7 µM (inactive)
GI50 (ACHN): 51.3 µM (inactive)
GI50 (DU-145): > 100 µM (inactive)
GI50 (SK-OV-3): 38.2 µM (inactive)
GI50 (U-251): 57.7 µM (inactive)
GI50 (DMS-114): 65 µM (inactive)
GI50 (M14): > 100 µM (inactive)
GI50 (NCI-H522): 4.38 µM (inactive)
GI50 (SF-295): 43.1 µM (inactive)
GI50 (UO-31): > 72.1 µM (inactive)
GI50 (CCRF-CEM): > 95.1 µM (inactive)
GI50 (RXF 393): 16 µM (inactive)
GI50 (NCI-H226): > 29.9 µM (inactive)
GI50 (A549): > 100 µM (inactive)
GI50 (NCI-H460): 7.11 µM (inactive)
GI50 (LOX IMVI): > 100 µM (inactive)
GI50 (IGROV-1): 13.9 µM (inactive)
GI50 (DLD-1): < 0.01 µM (active)
GI50 (UACC-257): 66.7 µM (inactive)
GI50 (Hs-578T): 22.6 µM (inactive)
GI50 (MCF7): > 71.9 µM (inactive)
GI50 (DMS-273): 26.5 µM (inactive)

N#CC1(C#N)C(C#N)(C#N)C12CCCCCC2
GI50 (HT-29): 17.2 µM (inactive)
GI50 (SF-539): 13.6 µM (inactive)
GI50 (SNB-19): 29.4 µM (inactive)
GI50 (SNB-75): 22.9 µM (inactive)
GI50 (SK-MEL-5): 18 µM (inactive)
GI50 (RPMI-8226): 3.28 µM (inactive)
GI50 (CAKI-1): 12.2 µM (inactive)
GI50 (HL-60): 3.48 µM (inactive)
GI50 (HCC 2998): 19.6 µM (inactive)
GI50 (SF-268): 22.5 µM (inactive)
GI50 (HOP-62): > 52.8 µM (inactive)
GI50 (OVCAR-8): 13.2 µM (inactive)
GI50 (SW-620): 1.95 µM (inactive)
GI50 (A498): 18.5 µM (inactive)
GI50 (M19-MEL): 20.5 µM (inactive)
GI50 (TK-10): 16.8 µM (inactive)
GI50 (LXFL 529): 15.2 µM (inactive)
GI50 (HCT-15): 8.41 µM
GI50 (OVCAR-4): 16.3 µM (inactive)
GI50 (COLO 205): 15.7 µM (inactive)
GI50 (KM12): 14 µM (inactive)
GI50 (K562): 3.1 µM (inactive)
GI50 (HCT-116): 5.01 µM (inactive)
GI50 (SK-MEL-2): 13.2 µM (inactive)
GI50 (SNB-78): 13.3 µM (inactive)
GI50 (HOP-92): 15.4 µM (inactive)
GI50 (MOLT-4): 5.45 µM (inactive)
GI50 (OVCAR-5): 16.4 µM (inactive)
GI50 (SK-MEL-28): 8.57 µM (inactive)
GI50 (786-0): 6.59 µM (inactive)
GI50 (OVCAR-3): 16.1 µM (inactive)
GI50 (SR): 22.1 µM (inactive)
GI50 (EKVX): 17.3 µM (inactive)
GI50 (NCI-H23): 16 µM (inactive)
GI50 (UACC-62): 12.9 µM (inactive)
GI50 (SN12C): 18.1 µM (inactive)
GI50 (HOP-18): 16.4 µM (inactive)
GI50 (KM-20L2): 16.6 µM (inactive)
GI50 (Malme-3M): 16.4 µM (inactive)
GI50 (ACHN): 11.1 µM (inactive)
GI50 (SK-OV-3): > 64.4 µM (inactive)
GI50 (U-251): 14.1 µM (inactive)
GI50 (DMS-114): 21.1 µM (inactive)
GI50 (M14): 2.81 µM (inactive)
GI50 (NCI-H522): 2.77 µM (inactive)
GI50 (SF-295): > 39.7 µM (inactive)
GI50 (UO-31): 18.5 µM (inactive)
GI50 (CCRF-CEM): 1.85 µM (inactive)
GI50 (RXF 393): 10.4 µM (inactive)
GI50 (NCI-H226): 20 µM (inactive)
GI50 (A549): 14.7 µM (inactive)
GI50 (NCI-H460): > 47.1 µM (inactive)
GI50 (LOX IMVI): 16.7 µM (inactive)
GI50 (IGROV-1): 40.2 µM (inactive)
GI50 (DLD-1): 4.1 µM (inactive)
GI50 (UACC-257): 13.9 µM (inactive)
GI50 (DMS-273): 22.4 µM (inactive)
